Calls of active or inactive are those of the source. The rule behind the calls is not given here.
Columns and labels:
Human coronavirus OC43 [1] = assay: Antiviral activity against HCoV-OC43; type: functional, organism-based
Human coronavirus 229E [2] = assay: Antiviral activity against HCoV-229E; type: functional, organism-based
[3] = Cytotoxicity against human NCI-H460 cells incubated for 72 hrs by CCK8 assay; type: toxicity, cell-based; conditions: read-out: EC50
DIS3-like exonuclease 2 = biological target: T1, DIS3-like exonuclease 2 (Homo sapiens, UniProt Q8IYB7); assay: (§1) Binding affinity to DIS3L2 (unknown origin) assessed as dissociation constant by SPR analysis
T1 sequence (Q8IYB7 whole entry): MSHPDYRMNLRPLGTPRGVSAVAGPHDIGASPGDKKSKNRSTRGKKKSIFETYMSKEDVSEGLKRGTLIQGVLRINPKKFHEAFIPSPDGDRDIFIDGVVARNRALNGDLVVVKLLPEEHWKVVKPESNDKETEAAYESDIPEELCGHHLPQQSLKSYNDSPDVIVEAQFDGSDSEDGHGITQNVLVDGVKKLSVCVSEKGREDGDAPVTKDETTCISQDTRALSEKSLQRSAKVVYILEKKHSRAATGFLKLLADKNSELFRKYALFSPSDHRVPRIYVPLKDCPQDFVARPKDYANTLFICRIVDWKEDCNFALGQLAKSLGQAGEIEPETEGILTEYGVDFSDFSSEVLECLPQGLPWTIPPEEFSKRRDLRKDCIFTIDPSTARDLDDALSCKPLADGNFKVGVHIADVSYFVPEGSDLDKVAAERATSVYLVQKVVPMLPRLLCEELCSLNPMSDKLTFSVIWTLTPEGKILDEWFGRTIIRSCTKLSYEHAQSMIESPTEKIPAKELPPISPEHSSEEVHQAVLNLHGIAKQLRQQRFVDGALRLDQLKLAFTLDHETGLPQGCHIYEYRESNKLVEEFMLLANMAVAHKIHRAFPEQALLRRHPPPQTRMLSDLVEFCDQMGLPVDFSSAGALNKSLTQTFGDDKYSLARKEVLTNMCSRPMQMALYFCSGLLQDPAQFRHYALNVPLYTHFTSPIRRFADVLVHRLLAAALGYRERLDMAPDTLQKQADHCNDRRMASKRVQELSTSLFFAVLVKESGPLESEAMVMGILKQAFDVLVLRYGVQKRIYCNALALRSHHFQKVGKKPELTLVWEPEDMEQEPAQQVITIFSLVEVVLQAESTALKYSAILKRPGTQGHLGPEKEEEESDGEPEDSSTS

[4] = biological target: T2, DIS3-like exonuclease 2 (Homo sapiens) (UniProt Q8IYB7); assay: as §1
T2 sequence (whole entry): T1 sequence (Q8IYB7 whole entry)

Human coronavirus 229E [5] = assay: Antiviral activity against HCoV-229E at replication stage in human Huh-7 cells assessed as dsRNA level at 2 uM treated immediately after infection incubated for 4 to 10 hrs by immunofluorescence based analysis; type: functional, organism-based; conditions: time 4-10 hrs
[6] = biological target: T2, DIS3-like exonuclease 2 (Homo sapiens); assay: Binding affinity to DIS3L2 in human NCI-H460 cells assessed as increase in thermal stability at 10 uM incubated for 6 hrs followed by heat exposure at 55 to 75 degreeC for 3 mins by CETSA; type: cell-based; conditions: time 363.0 min
FSE RNA pseudoknot = assay: Binding affinity to CM5 chip-immobilized coronavirus FSE RNA pseudoknot assessed as dissociation constant by SPR analysis; type: nucleic-acid assay, unidentified human coronavirus
Human coronavirus OC43 [7] = assay: Antiviral activity against HCoV-OC43 infected in human NCI-H460 cells incubated for 72 hrs by CCK8 assay; type: functional, organism-based; conditions: Betacoronavirus 1, NCI-H460, 72 h
Human coronavirus OC43 [8] = assay: Antiviral activity against HCoV-OC43 at replication stage in human Huh-7 cells assessed as dsRNA level at 2 uM treated immediately after infection incubated for 4 to 10 hrs by immunofluorescence based analysis; type: functional, organism-based; conditions: time 4-10 hrs
[9] = Selectivity index, ratio of CC50 for cytotoxicity against human NCI-H460 cells to EC50 for antiviral activity against HCoV-OC43 infected in human NCI-H460 cells; type: toxicity, cell-based, NCI-460; conditions: read-out: Ratio CC50/EC50

Compound: CCC(=O)O[C@@H]1CC(=O)O[C@H](C)C/C=C/C=C/[C@H](O[C@H]2CC[C@H](N(C)C)[C@@H](C)O2)[C@H](C)C[C@H](CC=O)[C@H](O[C@@H]2O[C@H](C)[C@@H](O[C@H]3C[C@@](C)(O)[C@@H](OC(=O)CC(C)C)[C@H](C)O3)[C@H](N(C)C)[C@H]2O)[C@H]1OC
- EC50 (Human coronavirus OC43 [1]; Betacoronavirus 1): 10.2 µM
- EC50 (Human coronavirus 229E [2]; Human coronavirus 229E): 3.52 µM

Compound: CO[C@@H]1[C@@H](O[C@@H]2O[C@H](C)[C@@H](O[C@H]3C[C@@](C)(O)[C@@H](O)[C@H](C)O3)[C@H](N(C)C)[C@H]2O)[C@@H](CC=O)C[C@@H](C)[C@@H](O[C@H]2CC[C@H](N(C)C)[C@@H](C)O2)/C=C/C=C/C[C@@H](C)OC(=O)C[C@H]1OC(C)=O
- EC50 (Human coronavirus OC43 [1]; Betacoronavirus 1): > 50 µM
- EC50 (Human coronavirus 229E [2]; Human coronavirus 229E): 25.4 µM

Compound: CO[C@@H]1[C@@H](O[C@@H]2O[C@H](C)[C@@H](O[C@H]3C[C@@](C)(O)[C@@H](OC(=O)CC(C)C)[C@H](C)O3)[C@H](N(C)C)[C@H]2O)[C@@H](CC=O)C[C@@H](C)[C@@H](O[C@H]2CC[C@H](N(C)C)[C@@H](C)O2)/C=C/C=C/C[C@@H](C)OC(=O)C[C@H]1O
- EC50 (Human coronavirus OC43 [1]; Betacoronavirus 1): 5.95 µM
- EC50 (Human coronavirus 229E [2]; Human coronavirus 229E): 3.61 µM

Compound: CO[C@@H]1[C@@H](O[C@@H]2O[C@H](C)[C@@H](O[C@H]3C[C@@](C)(O)[C@@H](OC(=O)CC(C)C)[C@H](C)O3)[C@H](N(C)C)[C@H]2O)[C@@H](CC=O)C[C@@H](C)[C@@H](O[C@H]2CC[C@H](N(C)C)[C@@H](C)O2)/C=C/C=C/C[C@@H](C)OC(=O)C[C@H]1OC(C)=O
- EC50 (Human coronavirus OC43 [1]; Betacoronavirus 1): 11.8 µM
- EC50 (Human coronavirus 229E [2]; Human coronavirus 229E): 6.38 µM

Compound: CCC(=O)O[C@@H]1CC(=O)O[C@H](C)C/C=C/C=C/[C@H](O[C@H]2CC[C@H](N(C)C)[C@@H](C)O2)[C@H](C)C[C@H](CC=O)[C@H](O[C@@H]2O[C@H](C)[C@@H](O[C@H]3C[C@@](C)(O)[C@@H](O)[C@H](C)O3)[C@H](N(C)C)[C@H]2O)[C@H]1OC
- EC50 (Human coronavirus OC43 [1]; Betacoronavirus 1): > 50 µM
- EC50 (Human coronavirus 229E [2]; Human coronavirus 229E): 27.4 µM

Compound: SPIRAMYCIN
- EC50 (Human coronavirus OC43 [1]): > 50 µM
- EC50 (Human coronavirus 229E [2]): 29.3 µM

Compound: CO[C@@H]1[C@@H](O[C@@H]2O[C@H](C)[C@@H](O[C@H]3C[C@@](C)(O)[C@@H](OC(=O)Cc4ccc(Cl)cc4)[C@H](C)O3)[C@H](N(C)C)[C@H]2O)[C@@H](CC=O)C[C@@H](C)[C@@H](O[C@H]2CC[C@H](N(C)C)[C@@H](C)O2)/C=C/C=C/C[C@@H](C)OC(=O)C[C@H]1O
- CC50 at 72 h [3]: 17.4 µM
- Kd (DIS3-like exonuclease 2): 4.67 µM
- Activity [4]: Dose-dependent-effect
- Activity (Human coronavirus 229E [5]): Active
- Activity [6]: Active
- Kd (FSE RNA pseudoknot): 7.29 µM
- Activity (FSE RNA pseudoknot; unidentified human coronavirus): Dose-dependent-effect
- EC50 (Human coronavirus OC43 [7]): 0.85 µM
- Activity (Human coronavirus OC43 [8]): Active
- selectivity ratio [9]: 20.5

Reference: ChEMBL document CHEMBL6103594, “Synthesis and evolution of 16-membered macrolide carrimycin derivatives as a novel class of anti-HCoV-OC43 agents targeting viral FSE RNA” (Eur J Med Chem, 2025)
